In US8658604B2, “Template-fixed beta-hairpin peptidomimetics with protease inhibitory activity” (Polyphor Ltd, priority 2005, dated 2014):
Where a SMILES comes first, the peptide text is derived from it.

Each molecule was assayed against T1, CathepsinG, from human neutrophils (Homo sapiens, UniProt P08311) (assay: Enzymatic assay, cathepsin G). Conditions: Cathepsin G IC50.
T1 sequence (P08311 21-244): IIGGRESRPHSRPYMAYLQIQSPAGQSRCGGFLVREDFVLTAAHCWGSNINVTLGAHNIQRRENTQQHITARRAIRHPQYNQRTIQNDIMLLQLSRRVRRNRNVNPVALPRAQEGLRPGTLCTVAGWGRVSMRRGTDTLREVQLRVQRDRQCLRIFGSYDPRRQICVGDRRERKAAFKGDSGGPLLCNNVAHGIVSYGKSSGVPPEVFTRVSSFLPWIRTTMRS
In the case of `CC[C@H](C)[C@@H]1NC(=O)[C@@H]2CCCN2C(=O)[C@@H]2CCCN2C(=O)[C@H](CC(=O)O)NC(=O)[C@H](CO)NC(=O)[C@H](CCCCN)NC(=O)[C@H]([C@@H](C)O)NC(=O)[C@@H]2CSSC[C@H](NC1=O)C(=O)N[C@@H](CO)C(=O)N[C@H]([C@H](C)O)C(=O)N1CCC[C@H]1C(=O)N[C@@H](Cc1ccccc1)C(=O)N2` [Ex. 72] (HELM PEPTIDE1{C.S.[dT].P.F.C.T.K.S.D.P.P.I}$PEPTIDE1,PEPTIDE1,1:R3-6:R3|PEPTIDE1,PEPTIDE1,1:R1-13:R2$$$V2.0), the IC50 is reported as 87 nM. For `C[C@@H](O)[C@@H]1NC(=O)[C@@H]2CSSC[C@H](NC(=O)[C@H](CC3CCCCC3)NC(=O)[C@@H]3CCCN3C(=O)[C@@H]3CCCN3C(=O)[C@H](CC(=O)O)NC(=O)[C@H](CO)NC(=O)[C@H](CCCCN)NC1=O)C(=O)N[C@@H](CC(N)=O)C(=O)N1CCC[C@@H]1C(=O)N1CCC[C@H]1C(=O)N[C@@H](Cc1ccc(N)cc1)C(=O)N2` [Ex. 70] (HELM PEPTIDE1{[Nc1ccc(C[C@H](N[*:1])C(=O)[*:2])cc1].C.T.K.S.D.P.P.[Cha].C.N.[dP].P}$PEPTIDE1,PEPTIDE1,2:R3-10:R3|PEPTIDE1,PEPTIDE1,1:R1-13:R2$$$V2.0), the IC50 was 69 nM. For `CC[C@H](C)[C@@H]1NC(=O)[C@@H]2CCCN2C(=O)[C@@H]2CCCN2C(=O)[C@H](CC(=O)O)NC(=O)[C@H](CO)NC(=O)[C@H](CCCCN)NC(=O)[C@H]([C@@H](C)O)NC(=O)[C@@H]2CSSC[C@H](NC1=O)C(=O)N[C@@H](CO)C(=O)N1CCC[C@@H]1C(=O)N1CCC[C@H]1C(=O)N[C@@H](Cc1cccc3ccccc13)C(=O)N2` [Ex. 62] (HELM PEPTIDE1{[O=C([C@H](Cc1cccc2ccccc12)N[*:1])[*:2]].C.T.K.S.D.P.P.I.C.S.[dP].P}$PEPTIDE1,PEPTIDE1,2:R3-10:R3|PEPTIDE1,PEPTIDE1,1:R1-13:R2$$$V2.0), the IC50 was 69 nM. `CCCC[C@@H]1NC(=O)[C@@H]2CCCN2C(=O)[C@H]2CCCN2C(=O)[C@H](CC(=O)O)NC(=O)[C@@H]2CSSC[C@H](NC1=O)C(=O)N[C@@H]([C@@H](C)O)C(=O)N[C@@H](CCCCN)C(=O)N[C@@H](CO)C(=O)N[C@@H](CC(=O)O)C(=O)N1CCC[C@H]1C(=O)N1CCC[C@H]1C(=O)N[C@@H]([C@@H](C)CC)C(=O)N2` [Ex. 43] (HELM PEPTIDE1{[Nle].C.T.K.S.D.P.P.I.C.D.[dP].P}$PEPTIDE1,PEPTIDE1,2:R3-10:R3|PEPTIDE1,PEPTIDE1,1:R1-13:R2$$$V2.0) was tested, and the IC50 was 77 nM. Molecule `CC[C@H](C)[C@@H]1NC(=O)[C@@H]2CCCN2C(=O)[C@@H]2CCCN2C(=O)[C@H](CC(=O)O)NC(=O)[C@H](CO)NC(=O)[C@H](CCCCN)NC(=O)[C@H]([C@@H](C)O)NC(=O)[C@@H]2CSSC[C@H](NC1=O)C(=O)N[C@@H](CC(N)=O)C(=O)N1CCC[C@@H]1C(=O)N1CCC[C@H]1C(=O)N[C@@H](CC1CCCCC1)C(=O)N2` [Ex. 33] (HELM PEPTIDE1{[Cha].C.T.K.S.D.P.P.I.C.N.[dP].P}$PEPTIDE1,PEPTIDE1,2:R3-10:R3|PEPTIDE1,PEPTIDE1,1:R1-13:R2$$$V2.0) has an IC50 of 45 nM. Work on `CC[C@H](C)[C@@H]1NC(=O)[C@@H]2CCCN2C(=O)[C@@H]2CCCN2C(=O)[C@H](CC(=O)O)NC(=O)[C@H](CO)NC(=O)[C@H](CCCCN)NC(=O)[C@H]([C@@H](C)O)NC(=O)[C@@H]2CSSC[C@H](NC1=O)C(=O)N[C@@H](CC(N)=O)C(=O)N1CCC[C@@H]1C(=O)N1CCC[C@H]1C(=O)N[C@@H](CCc1ccccc1)C(=O)N2` [Ex. 27] (HELM PEPTIDE1{[O=C([C@H](CCc1ccccc1)N[*:1])[*:2]].C.T.K.S.D.P.P.I.C.N.[dP].P}$PEPTIDE1,PEPTIDE1,2:R3-10:R3|PEPTIDE1,PEPTIDE1,1:R1-13:R2$$$V2.0) yielded an IC50 of 48 nM.
